Assays:
Format in all cases: in vivo
[1] = Body weight, mice with gastric injury without inflammation; details: 1.11 mmol/kg force-fed, one day after gavage, FIG. 2
Procedure: First experiments regarding the effect of the compound of formula (I) and a pharmaceutical composition comprising the compound of formula (I) (clear aqueous solution of compound of formula (I) at pH 4.8), respectively, on gastric injury without inflammation were conducted on mice. 48 animals were randomly allocated into three groups. Group A (n=16) served as sham-operated controls. Samples of all animals were drawn on day 1 of the clinical tests. On day 2 the animals of group B (n=16) were force-fed acetylsalicylic acid (ASS) (1.11 mmol/kg body weight). Group C (n=16) was force-fed 1.11 mmol/kg body weight of the compound according to the invention. Group A only received the respective solvent (25% ethanol in water). One day after the gavage, additional samples were drawn. Fluorescence confocal endomicroscopy was performed to examine the microvasculature and morphologic changes of the mucosa of the distal colon, and full-thickness tissue samples and venous blood samples were taken to determine the biochemical changes in the colon and plasma. The effects were determined by way of measurement of body weight, blood gas analysation and biopsy. ASS was chosen as a comparative example due to its structural similarity and its known activity as anti-inflammatory agent.

TNF-α = experiment: Plasma TNF-α level, rats with gastric injury without inflammation; details: one day after 1.11 mmol/kg, vs control group H, FIG. 21
Procedure: Plasma TNF-α concentrations were determined in duplicate by means of a commercially available enzyme-linked immunosorbent assay (Quantikine ultrasensitive enzyme-linked immunosorbent assay kit for rat TNF-α; Biomedica Hungaria Kft, Budapest, Hungary). The minimum detectable level was less than 5 pg/ml, and the inter-assay and intra-assay coefficients of variation were less than 10%.
Further experiments regarding the effect of a compound of formula (I) and a pharmaceutical composition comprising a compound of formula (I), respectively, on gastric injury without inflammation were conducted on rats. 15 animals were randomly allocated into three groups. Group H (n=5) served as sham-operated controls. Samples of all animals were drawn on day 1 of the clinical tests. On day 2 the animals of group I (n=5) were force-fed acetylsalicylic acid (ASS) (1.11 mmol/kg body weight). Group K (n=5) was force-fed 1.11 mmol/kg body weight of the compound according to the invention. […] Fluorescence confocal endomicroscopy was performed to examine the microvasculature and morphologic changes of the mucosa of the distal colon, and full-thickness tissue samples and venous blood samples were taken to determine the biochemical changes in the colon and plasma. The effects were determined by way of measurement of body weight, blood gas analysation and biopsy. […]

myeloperoxidase (MPO) = experiment: Tissue myeloperoxidase activity, rats with gastric injury without inflammation; details: gastric and colon tissue, one day after 1.11 mmol/kg, vs control group H, FIGS. 23a/23b
Procedure: Colon biopsies kept on ice were homogenized in phosphate buffer (pH 7.4) containing 50 mM Tris-HCl (Reanal, Budapest, Hungary), 0.1 mM EDTA, 0.5 mM dithiothreitol, 1 mM phenylmethylsulfonyl fluoride, 10 μg/ml soybean trypsin inhibitor, and 10 μg/ml leupeptin (Sigma Aldrich GmbH, Munich, Germany). The homogenate was centrifuged at 4° C. for 20 minutes at 24,000 g, and the supernatant was loaded into centrifugal tubes (Amicon Centricon-100; 100,000-molecular-weight cutoff ultrafilter, Millipore Corporation, Bedford, Mass.). The activity of myeloperoxidase (MPO) was measured on the pellet of the homogenate.
The activity of MPO as a marker of tissue leukocyte infiltration was measured on the pellet of the homogenate. Briefly, the pellet was resuspended in K3PO4 buffer (0.05 M; pH 6.0) containing 0.5% hexa-1,6-bis-decyltriethylammonium bromide. After three repeated freeze-thaw procedures, the material was centrifuged at 4° C. for 20 minutes at 24,000 g, and the supernatant was used for MPO determination. […] The reaction led to the hydrogen peroxide-dependent oxidation of tetramethylbenzidine, which could be detected spectrophotometrically at 450 nm (UV-1601 spetrophotometer; Shimadzu, Kyoto, Japan). Myeloperoxidase activities were measured at 37° C.; the reaction was stopped after 5 minutes by the addition of 0.2 ml of H2SO4 (2 M), and the resulting data were referred to the protein content. […]

xanthine oxidase enzyme [2] = experiment: Xanthine oxidase enzyme activity in tissue, rats with gastric injury without inflammation; details: gastric and colon tissue, 1.11 mmol/kg, vs control group H, FIGS. 24a/24b
Procedure: (§1) The XOR activity was determined in the ultrafiltered, concentrated supernatant by fluorometric kinetic assay based on the conversion of pterine to isoxanthopterine in the presence (total XOR) or absence (xanthine oxidase activity) of the electron acceptor methylene blue.
Further experiments regarding the effect of a compound of formula (I) and a pharmaceutical composition comprising a compound of formula (I), respectively, on gastric injury without inflammation were conducted on rats. 15 animals were randomly allocated into three groups. Group H (n=5) served as sham-operated controls. Samples of all animals were drawn on day 1 of the clinical tests. On day 2 the animals of group I (n=5) were force-fed acetylsalicylic acid (ASS) (1.11 mmol/kg body weight). Group K (n=5) was force-fed 1.11 mmol/kg body weight of the compound according to the invention. Group H only received the respective solvent (25% ethanol in water). One day after the gavage, additional samples were drawn. Fluorescence confocal endomicroscopy was performed to examine the microvasculature and morphologic changes of the mucosa of the distal colon, and full-thickness tissue samples and venous blood samples were taken to determine the biochemical changes in the colon and plasma. The effects were determined by way of measurement of body weight, blood gas analysation and biopsy. […]

xanthine oxidase enzyme [3] = experiment: Xanthine oxidase enzyme activity in tissue, rats with TNBS-induced colitis; details: gastric and colon tissue, 1.11 mmol/kg, FIGS. 33a/33b
Procedure: Colonic inflammation was induced by intracolonic administration of TNBS (2,4,6-trinitrobenzenesulfonic acid) (40 mg/kg in 0.25 ml of 25% aqueous ethanol) through an 8-cm-long soft plastic catheter under transient diethylether anesthesia. In the sham-operated groups, only the vehicle for TNBS was administered. The animals were deprived of food, but not water, for 12 h before the enemas.
as §1
The above-described clinical studies were repeated with animals having colitis which was induced as described above. […] Two days after the enema the effects of the treatment were determined by measurement of body weight, blood gas analysis and biopsy. […] Surgery was performed to allow registration of the hemodynamic parameters at 1 h intervals for 6 h (cardiac output [CO] data were measured only at the end of the experiments). […] In addition, fluorescence confocal endomicroscopy was performed to examine the microvasculature and morphologic changes of the mucosa of the distal colon, and full-thickness tissue samples and venous blood samples were taken to determine the biochemical changes in the colon and plasma.

| SMILES | change in body weight [1] | plasma TNF-α level (TNF-α) | myeloperoxidase (MPO) activity (myeloperoxidase (MPO)) | activity of xanthine oxidase enzyme (xanthine oxidase enzyme [2]) | activity of xanthine oxidase enzyme (xanthine oxidase enzyme [3]) |
| --- | --- | --- | --- | --- | --- |
| CC(=O)Oc1ccccc1C(=O)O [ASS, acetylsalicylic acid, reference compound] | severe loss of body weight | increase in the plasma TNF-α level | increased | increased activity | only a slight decrease in activity |
| CC(=O)Oc1ccccc1C(=O)NC(CO)(CO)CO [compound according to the invention] | only showed a minor loss in body weight | almost no change | does not further enhance the inflammatory processes | no such increase | enzyme activity comparable to that of healthy animals |

Source: patent US20160326098A1, “Pharmaceutically Active Compound for Use as Anti-inflammatory Agent” (Pax Forschung GmbH, priority 2013, published 2016)
